Usually IC50 stands for the point on the concentration scale where inhibition reaches its midpoint.

The test system of data set [1] is peptide transporter. The conditions noted are these: Meredith et al. 1998; cited from earlier work.
The nature of data set [2]: Solubility of glibenclamide. It counts as physicochemical.
Data set [3] concerns the target T1, PepT1 (Homo sapiens, UniProt P46059).
T1 sequence (P46059 1-708): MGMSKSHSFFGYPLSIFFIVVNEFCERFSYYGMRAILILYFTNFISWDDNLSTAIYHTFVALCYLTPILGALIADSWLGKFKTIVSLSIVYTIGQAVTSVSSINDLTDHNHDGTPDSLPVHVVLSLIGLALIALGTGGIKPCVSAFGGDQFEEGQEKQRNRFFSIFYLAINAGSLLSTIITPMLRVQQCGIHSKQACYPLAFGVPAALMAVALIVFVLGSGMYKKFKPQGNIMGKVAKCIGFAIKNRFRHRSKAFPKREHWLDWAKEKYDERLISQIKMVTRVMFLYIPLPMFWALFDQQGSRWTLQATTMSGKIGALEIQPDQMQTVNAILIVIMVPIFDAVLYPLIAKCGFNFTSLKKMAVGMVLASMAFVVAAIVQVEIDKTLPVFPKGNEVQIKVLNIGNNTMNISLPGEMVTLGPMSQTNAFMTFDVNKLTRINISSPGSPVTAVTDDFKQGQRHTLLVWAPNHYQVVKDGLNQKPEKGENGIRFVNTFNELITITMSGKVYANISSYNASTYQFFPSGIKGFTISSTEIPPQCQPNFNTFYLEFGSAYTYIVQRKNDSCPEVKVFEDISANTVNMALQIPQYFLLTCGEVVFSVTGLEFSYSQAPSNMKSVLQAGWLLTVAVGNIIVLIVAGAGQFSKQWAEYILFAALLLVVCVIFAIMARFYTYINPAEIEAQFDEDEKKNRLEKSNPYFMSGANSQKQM
Further details: host or cells: oocytes. As to conditions: oocytes; cited from earlier work.

For data set [4], the target named is T1, PepT1. Put plainly: Activity measurement with glibenclamide on protein-loaded sensor chip (SurfE2R system), current amplitude on change from non-activating to activating solution. It counts as biochemical. Further details: expressed in transfected cells; host or cells: CHO cells (plasma membrane preparation). As to conditions: 100 μM glibenclamide in both activating and non-activating solution; CHO plasma membrane preparation on sensor chip; FIG. 1. Here is the method: The measurements were carried out as above, although both solutions contained activating and non-activating solution and additionally 100 μM glibenclamide.

In the case of `NCc1ccc(C(=O)O)cc1` [4-aminomethyl benzoic acid], in data set [1], the “Affinity to the transporter” value is “only a slight affinity”.
Turning to `COc1ccc(Cl)cc1C(=O)NCCc1ccc(S(=O)(=O)NC(=O)NC2CCCCC2)cc1` [glibenclamide], the Solubility entry in data set [2] is recorded as “poor solubility”. For the same compound, the concentration for half-maximal inhibition (IC50) in data set [3] is around 100 µM. Besides, the “Effect on current amplitude (PepT1 transport current I(t))” value in data set [4] is reported as “inhibition of the current amplitude”.

These data come from patent publication US20080248486A1, “Type Pept1 Protein Assay” (Iongate Biosciences GmbH, priority 2004, published 2008).
